US9161895B1, “Compositions and methods for improving overall tooth health and appearance” (The Procter & Gamble Company, priority 2008, dated 2015)

What was measured:
[1] = compatibility of organophosphate additives with stannous fluoride solutions: visual inspection and soluble tin in supernatant; assay type: physicochemical
Procedure: Aqueous formulations of polyvalent metal antibacterial agents were prepared and evaluated for clarity, chemical content and performance when mixed with various organophosphate additives as described above. The compositions comprise stannous fluoride as an example of polyvalent metal cation in combination with sodium gluconate or sodium tripolyphosphate as stabilizer and organophosphate additives. The compositions also contained zinc. […] Following addition of additives, the solutions were immediately inspected for any visual changes and then analyzed for soluble tin in the supernatants after centrifugation.

[2] = system: total aerobes (pooled saliva inoculum); assay: bacterial time kill assay of CPC mouthrinse formulations; assay type: cell-based; conditions: 30 seconds
[3] = in vitro erosion cycling protocol (citric acid challenge, transverse microradiography); set-up: species or system human; conditions: for Surface Loss: aqueous solutions of test organophosphates (control: dentifrice slurry 1:3) in pooled human saliva, 1% citric acid 10 min, 4 treatments/day, 5 days, depth of total mineral loss by TMR; for % reduction vs. regular F control: reduction in surface mineral loss relative to Fluoride toothpaste (1100 ppm F), aqueous solutions
Procedure: The effectiveness of compositions of the present invention containing an organophosphate was evaluated according to the following in vitro erosion cycling protocol.
Tooth (dentin or enamel) specimens are prepared by cutting 3 mm-4 mm cores from extracted, human teeth using a diamond core drill. The teeth, collected by local surgeons, are stored until use in a 5% Thymol solution maintained at room temperature. Specimens are mounted on lucite rods with a dental acrylic (Dura Base, Reliance Mfg. Co.) covering all sides except the surface. Course polishing with 600-grit silicon carbide-water slurry is used to remove approximately 50 microns of the outer specimen surface to ensure homogeneity among specimens. Specimens are then polished with gamma alumina (Buehler No. 3, B Gamma Micropolish Alumina) to a mirror-like finish.
Approximately ⅔ of the surface of each specimen is then covered with an acid resistant nail polish (placed in a mesial-distal fashion), leaving the center portion exposed as a treatment window. Covered portions remain covered with the acid-resistant nail polish throughout the experiment, serving as the control (untreated) areas for later microradiographic analysis. Specimens are randomly assigned to one of four treatment groups (4 specimens/group).
Each group of specimens is placed in 20 ml of fresh, pooled human saliva for at least one hour to form an initial layer of pellicle on the specimen surfaces prior to first day of treatment. To begin the treatment phase, aqueous solutions of the test organophosphates and dentifrice slurry (1:3) of the control fluoride toothpaste are prepared in fresh, pooled human saliva. Each treatment cycle consists of: dentifrice slurry (2 min)→rinse in deionized distilled H2O→saliva (1 hour)→erosion challenge (10 min)→rinse in ddiH2O→saliva. There are 4 treatments per day for a total of five treatment days. Dentifrice treatments consist of immersing the specimens into the dentifrice slurry for two minutes while specimens rotate at 75 rpm. The erosion challenge consists of soaking each treatment group in 12 ml of 1% Citric acid (at room temperature). At any time specimens are not in treatment, they remain in 20 ml of pooled, human saliva (stirred). The saliva is refreshed 3×/day. At night, each group of specimens remains immersed in saliva (stirred at room temperature).
After 5 days of treatment, thin cross-sections (80-120 μm thick) of each specimen are removed for assessment using standardized transverse microradiography (TMR) techniques. The exposed, treated area of each specimen is assessed with respect to complete mineral loss (erosion). Results with simple aqueous solutions of various alkyl phosphate compounds are presented in Table 1 as depth (in microns) of total mineral loss from the original specimen surface using the covered (untreated) areas as anatomical reference points. For comparison, percent reduction in surface mineral loss is calculated relative to water or fluoride containing compositions.

[4] = stannous fluoride/sodium gluconate solution, additive 1.0%
[5] = stannous fluoride/sodium tripolyphosphate solution, additive 1.0%
[6] = mouthrinse: organophosphate additive 0.05%, CPC 0.05%
[7] = mouthrinse: organophosphate additive 0.1%, CPC 0.1%
[8] = 0.454% stannous fluoride/3.0% sodium tripolyphosphate solution, additive 2.0%
[9] = stannous fluoride/sodium gluconate solution, additive 0.5%
[10] = 0.454% stannous fluoride/0.6% sodium gluconate solution, additive 2.0%
[11] = stannous fluoride/sodium gluconate solution, additive 0.2%
[12] = stannous fluoride/sodium tripolyphosphate solution, additive 0.08%

## Laureth 3 phosphate [Foamphos L-3]
[1]; [4]
  Soluble Tin: 1371 ppm
  Visual Inspection: Slight precipitate
[1]; [5]
  Soluble Tin: 3496 ppm
  Visual Inspection: Slight hazy
[2]; [6]
  Log Reduction vs. water control: 2.04
[2]; [7]
  Log Reduction vs. water control: 2.05
[3]
  Surface Loss: 13.25 μm
  % reduction vs. regular F control: 60.74%

## Laureth-1 phosphate [MAP L210]
[1]; [8]
  Soluble Tin: 1888 ppm
  Visual Inspection: Slight precipitate
[1]; [9]
  Soluble Tin: 1419 ppm
  Visual Inspection: Slight precipitate
[3]
  Surface Loss: 25.75 μm
  % reduction vs. regular F control: 23.70%

## Laureth-9 phosphate [Foamphos L-9]
[1]
  clarity of stannous fluoride solutions (in words): clear solutions
  soluble stannous (in words): high levels of soluble stannous
[1]; [10]
  Soluble Tin: 3145 ppm
  Visual Inspection: Slight hazy
[1]; [8]
  Soluble Tin: 2511 ppm
  Visual Inspection: Clear
[2]; [6]
  Log Reduction vs. water control: 2.76
[2]; mouthrinse: organophosphate additive 0.1%, CPC 0.05%
  Log Reduction vs. water control: 2.76
[2]; [7]
  Log Reduction vs. water control: 2.76

## PPG5 ceteareth-10 phosphate [CrodaphosSG]
[3]
  Surface Loss: 18.50 μm
  % reduction vs. regular F control: 45.19%

## Potassium C12/13 phosphate [MAP 230K]
[1]; [11]
  Soluble Tin: 2015 ppm
  Visual Inspection: Slight precipitate
[1]; [12]
  Soluble Tin: 2814 ppm
  Visual Inspection: Slight precipitate
[2]; mouthrinse: organophosphate additive 0.0335%, CPC 0.0165%
  Log Reduction vs. water control: −0.05
[2]; mouthrinse: organophosphate additive 0.04%, CPC 0.01%
  Log Reduction vs. water control: −0.01
[3]
  Surface Loss: 10.50 μm
  % reduction vs. regular F control: 68.89%

## Sodium diLaureth-10 phosphate [DLP-10]
[1]; [10]
  Soluble Tin: 2886 ppm
  Visual Inspection: Clear

## Trilaureth-4 phosphate [Hostaphat KL 340D]
[3]
  Surface Loss: 22.50 μm
  % reduction vs. regular F control: 33.33%
